Source: patent US8455448B2, “Myostatin isoform” (Myostin Therapeutics Pty Ltd, priority 2004, dated 2013)
Entries after “also recorded” stand apart in the source; their conditions may differ.

B1: roMSV65: 65 amino acid C-terminal peptide of ovine MSV (SEQ ID NO: 49) expressed as recombinant protein in E. coli (protein)
chain: VHFYTPPYGQWIFHKERKIIFLEVYIQFCSILGEAVFKRQSKSIHFCQNFKIIACLCNTAAFRMK
modifications: Ovis aries

Columns and labels:
[1] = tested on: creatine kinase (CK); test: Creatine kinase (CK-NAC) assay of blood samples of AH130 tumour rats; assay type: in vivo, rat; details: 1 μg/g bodymass s.c. twice daily for 6 d, day 6, FIG. 19
Experimental: The ascites hepatoma 130 (AH130) was obtained as a gift from Dr Vicki Baracos (University of Alberta, Edmonton, Alberta, Canada) and stored in cryovials in liquid nitrogen in a solution of 50% DMSO and 10% BSA. An aliquot was retrieved and thawed and 1 ml was injected i.p. into each of three donor rats and allowed to grow for seven days. The rats were killed by CO2 asphyxiation followed by cervical dislocation. The ascites was harvested and 100 μl was injected i.p. into each of 14 recipient male rats (280±6 g). An equal volume of saline was injected i.p. into seven control rats. Of the 14 rats inoculated with the AH130 tumour, seven were injected s.c. twice daily with roMSV47 at a dose of 1 μg/g body mass diluted in sterile saline to a volume of 1 ml. […] The volume of ascites in the peritoneal cavity was removed with a syringe and the volume recorded. Six muscles in the right hind limb (biceps femoris, gastrocnemius, soleus, plantaris, tibialis anterior and quadriceps femoris) were excised and their mass recorded.
CK-NAC was assayed in a commercial kit (Randox laboratories Ltd, UK). Reaction volumes were scaled down proportionately so that the assays could be performed in 96-well microtitre plates with samples assayed in triplicate (CK-NAC) and read as a change in U/L per min as per manufacturer's instructions.

[2] = tested on: myogenin; test: Myogenin protein in differentiating C2C12 myoblasts (Western blot); assay type: cell-based, murine; details: 0, 0.1, 1, 10 μg/ml, 72 h in differentiation medium, FIG. 4
Experimental: To investigate whether roMSV65 regulates myoblast differentiation or myotube hypertrophy, C2C12 myoblast cultures were employed. Levels of well-established early and late molecular markers of myogenic differentiation like myogenin and dMHC were measured in the presence and absence of roMSV65 protein.
C2C12 myoblasts were seeded in 10 cm diameter tissue culture plates (Nunc, Roskilde, Denmark) at a cell density of 25,000 cells per cm^2 in 10 ml of Dulbecco's modified Eagle's medium (DMEM, Invitrogen, California) supplemented with foetal bovine serum (FBS, 10% v/v, Invitrogen), penicillin (1×10^5 IU/l, Sigma, St Louis, Mo., USA) and streptomycin (100 mg/I, Sigma) buffered with NaHCO3 containing phenol red (7.22 nmol/l) as a pH indicator, and incubated overnight at 37° C. with 5% CO2.
To study myoblast differentiation, the medium was replaced with the test medium: DMEM with 2% Horse Serum supplemented with 0, 0.1, 1 or 10 μg/ml roMSV65 in three replicates for each concentration (n=3). […]
Cells were removed from the plate by trypsin treatment, washed with phosphate buffered saline (PBS, Oxoid, UK) and resuspended in 200 μl of lysis buffer (10 mM Hepes pH 7.9, 1.5 mM MgCl2, 10 mM KCl, 0.5% NP40, one Complete protease inhibitor tablet [Roche Diagnostics, USA] per 50 ml buffer). […] Band intensities were measured with a GS800 densitometer (Bio-Rad, CA).

Row | Molecule | concentrations of creatine kinase (CK) [1] | myogenin protein levels in C2C12 myotubes [2]
1 | roMSV47: 47 amino acid C-terminal mature ovine MSV fragment (SEQ ID NO: 50), recombinant from E. coli (IIFLEVYIQFCSILGEAVFKRQSKSIHFCQNFKIIACLCNTAAFRMK; Ovis aries) | partially restores concentrations of CK; also recorded: not as markedly reduced | –
2 | B1 | – | dose-dependently increases myogenin protein levels
